Marks after values point to notes of the source that are not given here.
Tests used:
[1] = tested on: AHAS enzyme of WT line (B7); assay: AHAS enzyme activity assay, Sets 1 and 2; assay type: biochemical, sunflower; settings: 100 μM
Experimental: Twelve greenhouse grown sunflower plants from each of the lines depicted in Table 21 were bulked and subjected to an AHAS enzyme activity assay via the method of Singh et al. (1988) Anal. Biochem. 171:173-179. Each activity assay was repeated twice. Due to the large number of samples, the experiment was split into two sets (Table 21).
Young, actively growing leaves, from four week old plantlets, were ground in a mortar and pestle with liquid N2 and extracted with a buffer composed of 100 mM Pyruvate, 200 mM KH2PO4, 20 mM MgCl2, 2 mM thiamine pyrophosphate and […]. Plant extracts were then spun through a 10 mL Zeba™ TM desalt spin column (Pierce #89893) as per the manufacturer's recommendation. The inhibition assay was performed as described by Singh et al. (1988) Anal. Biochem. 171:173-179. Assays were conducted in a 96-well format. Fifty μl of inhibitor was added to each well containing 50 μl of soluble protein extract to give final concentrations of 0.78, 1.56, 3.125, 6.25, 12.5, 25, 50 and 100 μM imazamox or 0.78, 1.56, 3.125, 6.25, 12.5, 25, 50 and 100 μM imazapyr. Zero herbicide controls were also included for each line. […] Absorbance was measured at 530 nm. AHAS activity, expressed as the mean of the absorbance values for each treatment, was presented as a percentage of the mean of the zero-herbicide controls.

[2] = tested on: sunflower line BTI-OL-M1709; assay: tolerance to imidazolinones, greenhouse (Example 8); settings: 160 gr/ha at V4, fourteen days after treatment
[3] = tested on: hybrids carrying the A205V mutation event (A205V/A205V, A205V/WT); assay: field trial, imazapyr at V8 or R1 stage (Example 4); settings: 160 g ai/ha applied at R1; 14 DAT
[4] = tested on: lines carrying at least one allele A122T (A122T/A122T, A122T/A205V, A122/WT); assay: as above; settings: 160 g ai/ha applied at R1; 14 DAT
[5] = tested on: sunflower hybrid H3 (L3*L2), 122/205; assay: as above; settings: H3 122/205
[6] = tested on: sunflower line BTI-OL-M1511; assay: tolerance to imidazolinones, greenhouse (Example 8); settings: 160 gr/ha at V4, fourteen days after treatment
[7] = tested on: sunflower hybrid H6 (L1 * WT), 205/wild type; assay: field trial, imazapyr at V8 or R1 stage (Example 4); settings: H6 205/wild type
[8] = tested on: sunflower hybrid H5 (L3 x WT), 122/Wild type; assay: as above; settings: H5 122/Wild type
[9] = tested on: sunflower line GM40 (A122T); assay: tolerance to imidazolinones, greenhouse (Example 8); settings: 160 gr/ha at V4, fourteen days after treatment
[10] = tested on: sunflower line VB141 (high oleic); assay: as above
[11] = tested on: sunflower line BTK112 (conventional); assay: as above
[12] = tested on: sunflower genotypes carrying A122T (mean of H2, L3, L4); assay: imazapyr whole plant greenhouse test (Example 2); assay type: in vivo; settings: for Phytotoxicity Index (0-9) 14 days after treatment / biomass accumulation 14 days after treatment, % of untreated / plant height 14 days after treatment, % of untreated: A122T Mean; for height reduction: of the untreated controls
Experimental: Seeds were sown in Petri dishes and, after germination, plantlets were transplanted to pots of 10 cm of diameter in a potting media consisting of equal parts of vermiculite, soil and sand. Plants were grown in a greenhouse under natural light conditions supplemented with 400 W sodium halide lamps to provide a 16 hr daylength. Day/night temperatures were 25 and 20 ° C., respectively. At the V2-V4 stage (Schneiter & Miller (1981) Crop Sci. 21:901-903) 10 plants of each genotype were randomly assigned to each treatment consisting of eight imazapyr doses (0, 40, 80, 160, 240, 320, 400 and 480 g ai/ha, corresponding to untreated, 0.5×, 1×, 2×, 3×, 4×, 5× and 6×, respectively), and a zero-time biomass determination. Experiment was arranged as a randomized block design with a full factorial (sunflower line×treatment) arrangement of treatments and 10 replications.
On the day of herbicide application ten plants of each genotype were cut at the cotyledonal node and dried at 60° C. for 48 hrs for zero-time dried weight determination.
The remaining plants were maintained for 14 days after imazapyr treatment (DAT) and their height, Phytotoxicity Index (PI) and above ground dry biomass were determined Height was determined as the distance between the cotyledonal node and the apex of each plant. Above ground biomass data from each line were converted to biomass accumulation after application by subtracting the appropriate average zero- time biomass from each sample. Dry biomass data were converted to percentages of the untreated control plants within each line to allow direct comparisons between groups.

[13] = 160 g ai/ha applied at R1, 14 DAT
[14] = 160 g ai/ha applied at R1, 21 DAT
[15] = 160 g ai/ha applied at V8, 14 DAT
[16] = 160 g ai/ha applied at V8, 21 DAT
[17] = 160 gr/ha at V4, fourteen days after treatment

COCc1cnc(C2=NC(C)(C(C)C)C(=O)N2)c(C(=O)O)c1 (centres unmarked) [imazamox]
AHAS activity, % of untreated control ([1]; Set 1 (FIG. 13)): 17%
AHAS activity, % of untreated control ([1]; Set 2 (FIG. 14)): 11%

CC(C)C1(C)N=C(c2ncccc2C(=O)O)NC1=O (centres unmarked) [imazapyr]
Mean Phytotoxicity Index (0-9) [2]: 0.2
PI (0-50), group with chlorosis, stunting and deformation [3]: greater than 35
PI (0-50), group with chlorosis symptoms only [4]: less than 11.7
Mean Phytotoxicity Index (0-50) [5, 13]: 4.3
Mean Phytotoxicity Index (0-50) [5, 14]: 0.7
Mean Phytotoxicity Index (0-50) [5, 15]: 3
Mean Phytotoxicity Index (0-50) [5, 16]: 0
Mean Phytotoxicity Index (0-9) [6]: 0.5
Mean Phytotoxicity Index (0-50) [7, 13]: 40
Mean Phytotoxicity Index (0-50) [7, 14]: 48.3
Mean Phytotoxicity Index (0-50) [7, 15]: 5
Mean Phytotoxicity Index (0-50) [7, 16]: 5
Mean Phytotoxicity Index (0-50) [8, 13]: 11.7
Mean Phytotoxicity Index (0-50) [8, 14]: 23.3
Mean Phytotoxicity Index (0-50) [8, 15]: 15
Mean Phytotoxicity Index (0-50) [8, 16]: 5
Mean Phytotoxicity Index (0-9) [9]: 0.2
outcome of the herbicide treatment ([10]; 160 gr/ha at V4): killed
Mean Phytotoxicity Index (0-9) [10, 17]: 8.5
outcome of the herbicide treatment ([11]; 160 gr/ha at V4): killed
Mean Phytotoxicity Index (0-9) [11, 17]: 9
Phytotoxicity Index (0-9) 14 days after treatment ([12]; dose 0.5 (0.5x, 40 g ai/ha)): 0.3
biomass accumulation 14 days after treatment, % of untreated ([12]; dose 0.5 (0.5x, 40 g ai/ha)): 98.9%
plant height 14 days after treatment, % of untreated ([12]; dose 0.5 (0.5x, 40 g ai/ha)): 99.9%
Phytotoxicity Index (0-9) 14 days after treatment ([12]; dose 1 (1x, 80 g ai/ha)): 0.3
biomass accumulation 14 days after treatment, % of untreated ([12]; dose 1 (1x, 80 g ai/ha)): 96.7* %
plant height 14 days after treatment, % of untreated ([12]; dose 1 (1x, 80 g ai/ha)): 99.5%
Phytotoxicity Index (0-9) 14 days after treatment ([12]; dose 2 (2x, 160 g ai/ha)): 0.3
biomass accumulation 14 days after treatment, % of untreated ([12]; dose 2 (2x, 160 g ai/ha)): 92.2** %
plant height 14 days after treatment, % of untreated ([12]; dose 2 (2x, 160 g ai/ha)): 98.0%
Phytotoxicity Index (0-9) 14 days after treatment ([12]; dose 3 (3x, 240 g ai/ha)): 0.3
biomass accumulation 14 days after treatment, % of untreated ([12]; dose 3 (3x, 240 g ai/ha)): 90.0** %
plant height 14 days after treatment, % of untreated ([12]; dose 3 (3x, 240 g ai/ha)): 95.7* %
Phytotoxicity Index (0-9) 14 days after treatment ([12]; dose 4 (4x, 320 g ai/ha)): 0.5
biomass accumulation 14 days after treatment, % of untreated ([12]; dose 4 (4x, 320 g ai/ha)): 85.7** %
plant height 14 days after treatment, % of untreated ([12]; dose 4 (4x, 320 g ai/ha)): 94.6** %
Phytotoxicity Index (0-9) 14 days after treatment ([12]; dose 5 (5x, 400 g ai/ha)): 0.8
biomass accumulation 14 days after treatment, % of untreated ([12]; dose 5 (5x, 400 g ai/ha)): 74.3** %
plant height 14 days after treatment, % of untreated ([12]; dose 5 (5x, 400 g ai/ha)): 85.4** %
Phytotoxicity Index (0-9) 14 days after treatment ([12]; dose 6 (6x, 480 g ai/ha)): 1.2
biomass accumulation 14 days after treatment, % of untreated ([12]; dose 6 (6x, 480 g ai/ha)): 69.9** %
plant height 14 days after treatment, % of untreated ([12]; dose 6 (6x, 480 g ai/ha)): 81.2** %
height reduction ([12]; A122T homozygous, 0.5x): 0.1%
height reduction ([12]; A122T homozygous, 6x): 18.8%
reduction of biomass weight ([12]; A122T homozygous, higher dose (6x)): 25%

— patent US20150148234A1, “HERBICIDE-RESISTANT SUNFLOWER PLANTS WITH MULTIPLE HERBICIDE RESISTANT ALLELES OF AHASL1 AND METHODS OF USE” (NIDERA S.A., priority 2013, published 2015)
